Key:
Format in all cases: cell-based
[1] = target: proteins of HEK293T cells transiently overexpressing caspase-6 (Homo sapiens, UniProt P11021); details: protein HSPA5 (P11021)
[2] = target: proteins of HEK293T cells transiently overexpressing caspase-6 (Homo sapiens, UniProt P19013); details: Probe; protein KRT4 P19013
[3] = target: proteins of HEK293T cells transiently overexpressing caspase-6 (Homo sapiens, UniProt Q15365); details: protein PCBP1 (Q15365); exp_ref Probe; analysis C6
[4] = target: proteins of HEK293T cells transiently overexpressing caspase-6 (Homo sapiens, UniProt P60174); details: exp_ref Probe; protein TPI1 (P60174); analysis C6
[5] = target: proteins of HEK293T cells transiently overexpressing caspase-6 (Homo sapiens, UniProt P62805)
[6] = target: proteins of HEK293T cells transiently overexpressing caspase-6 (Homo sapiens, UniProt P50914); details: exp_ref Probe; protein RPL14 (P50914); analysis C6
[7] = target: proteins of HEK293T cells transiently overexpressing caspase-6 (Homo sapiens, UniProt P23396); details: exp_ref Probe; protein RPS3 (P23396); analysis C6
[8] = target: proteins of HEK293T cells transiently overexpressing caspase-6 (Homo sapiens, UniProt Q08211); details: exp_ref Probe; protein DHX9 (Q08211); analysis C6
[9] = target: proteins of HEK293T cells transiently overexpressing caspase-6 (Homo sapiens, UniProt P62244); details: exp_ref Probe; protein RPS15A (P62244); analysis C6
[10] = target: proteins of HEK293T cells transiently overexpressing caspase-6 (Homo sapiens, UniProt Q99729); details: Probe; protein HNRNPAB Q99729
[11] = target: proteins of HEK293T cells transiently overexpressing caspase-6 (Homo sapiens, UniProt Q9Y2X3); details: protein NOP58 (Q9Y2X3); exp_ref Probe; analysis C6
[12] = target: T1, proteins of HEK293T cells transiently overexpressing caspase-6 (Homo sapiens, UniProt P62258); details: protein YWHAE (P62258)
T1 sequence (P62258 1-255): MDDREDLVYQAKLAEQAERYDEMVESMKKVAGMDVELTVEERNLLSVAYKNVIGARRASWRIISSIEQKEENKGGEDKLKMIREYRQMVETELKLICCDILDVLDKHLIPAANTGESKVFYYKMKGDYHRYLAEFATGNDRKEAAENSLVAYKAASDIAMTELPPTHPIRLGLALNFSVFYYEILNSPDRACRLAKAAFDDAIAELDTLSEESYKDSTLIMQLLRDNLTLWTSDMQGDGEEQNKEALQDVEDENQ

[13] = target: proteins of HEK293T cells transiently overexpressing caspase-6 (Homo sapiens, UniProt P13639); details: protein EEF2 (P13639)
[14] = target: proteins of HEK293T cells transiently overexpressing caspase-6 (Homo sapiens, UniProt Q13838); details: exp_ref Probe; protein DDX39B (Q13838); analysis C6
[15] = target: proteins of HEK293T cells transiently overexpressing caspase-6 (Homo sapiens, UniProt Q14566); details: exp_ref Probe; protein MCM6 (Q14566); analysis C6
[16] = target: T2, proteins of HEK293T cells transiently overexpressing caspase-6 (Homo sapiens, UniProt P54577); details: protein YARS (P54577), analysis C6
T2 sequence (P54577 1-528): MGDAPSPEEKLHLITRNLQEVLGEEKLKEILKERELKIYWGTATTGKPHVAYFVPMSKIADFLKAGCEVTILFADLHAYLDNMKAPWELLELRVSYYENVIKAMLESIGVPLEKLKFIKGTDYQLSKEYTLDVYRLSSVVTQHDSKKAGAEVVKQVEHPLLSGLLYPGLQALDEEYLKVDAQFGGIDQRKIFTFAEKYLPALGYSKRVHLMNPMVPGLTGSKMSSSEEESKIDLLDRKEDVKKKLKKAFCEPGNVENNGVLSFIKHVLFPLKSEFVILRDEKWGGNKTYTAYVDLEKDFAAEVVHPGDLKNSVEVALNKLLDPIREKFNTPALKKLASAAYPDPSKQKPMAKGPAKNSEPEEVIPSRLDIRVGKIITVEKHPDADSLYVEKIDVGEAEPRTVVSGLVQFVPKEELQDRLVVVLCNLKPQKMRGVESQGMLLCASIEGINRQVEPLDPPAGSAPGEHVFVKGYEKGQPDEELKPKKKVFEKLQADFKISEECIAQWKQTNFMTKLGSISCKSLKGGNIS

[17] = target: proteins of HEK293T cells transiently overexpressing caspase-6 (Homo sapiens, UniProt O43143); details: exp_ref Probe; protein DHX15 (O43143); analysis C6
[18] = target: proteins of HEK293T cells transiently overexpressing caspase-6 (Homo sapiens, UniProt P35527); details: Probe; protein KRT9 P35527
[19] = target: proteins of HEK293T cells transiently overexpressing caspase-6 (Homo sapiens, UniProt P63261); details: exp_ref Probe; protein ACTG1 (P63261); analysis C6

Sequence of proteins of HEK293T cells transiently overexpressing caspase-6 (Homo sapiens, UniProt P11021) (P11021 19-654): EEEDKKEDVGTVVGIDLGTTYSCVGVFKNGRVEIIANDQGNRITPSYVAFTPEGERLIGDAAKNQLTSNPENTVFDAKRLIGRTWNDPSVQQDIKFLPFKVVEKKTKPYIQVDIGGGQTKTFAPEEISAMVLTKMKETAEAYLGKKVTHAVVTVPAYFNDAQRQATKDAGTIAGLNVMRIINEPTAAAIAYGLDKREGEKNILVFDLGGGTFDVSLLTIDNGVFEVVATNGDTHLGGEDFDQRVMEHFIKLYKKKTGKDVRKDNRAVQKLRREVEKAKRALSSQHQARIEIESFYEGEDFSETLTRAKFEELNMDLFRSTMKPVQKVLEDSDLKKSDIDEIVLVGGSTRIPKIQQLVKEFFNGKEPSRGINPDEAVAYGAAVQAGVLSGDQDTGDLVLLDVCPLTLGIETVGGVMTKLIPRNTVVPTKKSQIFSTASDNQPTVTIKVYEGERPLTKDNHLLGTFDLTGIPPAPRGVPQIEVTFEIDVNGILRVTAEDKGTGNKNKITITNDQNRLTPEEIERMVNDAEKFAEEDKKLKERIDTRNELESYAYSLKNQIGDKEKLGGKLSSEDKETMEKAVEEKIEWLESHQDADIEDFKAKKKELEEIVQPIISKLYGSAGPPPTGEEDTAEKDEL
Sequence of proteins of HEK293T cells transiently overexpressing caspase-6 (Homo sapiens, UniProt Q9Y2X3) (Q9Y2X3 whole entry): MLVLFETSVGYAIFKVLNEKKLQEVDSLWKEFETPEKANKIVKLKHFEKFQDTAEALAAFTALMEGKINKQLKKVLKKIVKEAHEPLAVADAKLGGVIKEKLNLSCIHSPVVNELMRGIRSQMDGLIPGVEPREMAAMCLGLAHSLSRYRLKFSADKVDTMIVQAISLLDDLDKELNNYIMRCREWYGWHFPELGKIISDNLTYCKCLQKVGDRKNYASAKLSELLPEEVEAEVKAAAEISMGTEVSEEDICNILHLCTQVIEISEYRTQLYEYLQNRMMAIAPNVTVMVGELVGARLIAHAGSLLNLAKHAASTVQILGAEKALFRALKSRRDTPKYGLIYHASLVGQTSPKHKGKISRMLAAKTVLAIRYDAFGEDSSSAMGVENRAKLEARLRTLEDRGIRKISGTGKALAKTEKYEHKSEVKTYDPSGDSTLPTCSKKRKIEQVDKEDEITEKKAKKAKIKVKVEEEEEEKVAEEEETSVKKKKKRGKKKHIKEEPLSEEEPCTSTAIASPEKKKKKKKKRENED
Sequence of proteins of HEK293T cells transiently overexpressing caspase-6 (Homo sapiens, UniProt P19013) (P19013 whole entry): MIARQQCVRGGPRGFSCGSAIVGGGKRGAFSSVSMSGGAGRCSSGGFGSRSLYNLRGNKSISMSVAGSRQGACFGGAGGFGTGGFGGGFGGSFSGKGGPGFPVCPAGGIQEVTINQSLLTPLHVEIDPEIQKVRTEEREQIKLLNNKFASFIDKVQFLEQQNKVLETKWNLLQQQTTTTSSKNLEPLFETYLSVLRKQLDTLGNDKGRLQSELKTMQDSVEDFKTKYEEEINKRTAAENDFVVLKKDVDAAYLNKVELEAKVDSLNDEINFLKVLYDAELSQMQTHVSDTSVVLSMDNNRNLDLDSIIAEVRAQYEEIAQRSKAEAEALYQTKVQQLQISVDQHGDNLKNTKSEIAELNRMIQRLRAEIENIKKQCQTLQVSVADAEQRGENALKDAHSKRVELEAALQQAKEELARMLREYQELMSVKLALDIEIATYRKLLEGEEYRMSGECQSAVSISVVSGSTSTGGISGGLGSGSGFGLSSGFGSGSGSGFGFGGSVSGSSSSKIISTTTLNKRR
Sequence of proteins of HEK293T cells transiently overexpressing caspase-6 (Homo sapiens, UniProt P35527) (P35527 whole entry): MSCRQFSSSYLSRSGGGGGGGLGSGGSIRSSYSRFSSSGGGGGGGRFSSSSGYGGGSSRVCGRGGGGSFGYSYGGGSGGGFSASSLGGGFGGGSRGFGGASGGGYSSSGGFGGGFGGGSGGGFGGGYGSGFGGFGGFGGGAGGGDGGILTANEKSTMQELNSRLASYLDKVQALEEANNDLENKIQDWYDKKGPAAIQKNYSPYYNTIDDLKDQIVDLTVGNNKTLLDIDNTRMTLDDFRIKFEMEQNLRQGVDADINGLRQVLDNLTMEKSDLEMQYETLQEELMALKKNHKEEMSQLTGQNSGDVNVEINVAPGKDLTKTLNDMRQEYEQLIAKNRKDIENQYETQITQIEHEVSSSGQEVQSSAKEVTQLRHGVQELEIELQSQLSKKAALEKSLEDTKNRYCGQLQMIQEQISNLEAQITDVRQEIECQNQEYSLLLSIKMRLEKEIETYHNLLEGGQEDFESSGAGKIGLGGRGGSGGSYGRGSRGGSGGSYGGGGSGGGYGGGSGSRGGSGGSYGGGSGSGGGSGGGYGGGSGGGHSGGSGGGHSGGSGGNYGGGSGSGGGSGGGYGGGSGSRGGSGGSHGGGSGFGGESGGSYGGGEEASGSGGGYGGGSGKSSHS
Sequence of proteins of HEK293T cells transiently overexpressing caspase-6 (Homo sapiens, UniProt Q14566) (Q14566 whole entry): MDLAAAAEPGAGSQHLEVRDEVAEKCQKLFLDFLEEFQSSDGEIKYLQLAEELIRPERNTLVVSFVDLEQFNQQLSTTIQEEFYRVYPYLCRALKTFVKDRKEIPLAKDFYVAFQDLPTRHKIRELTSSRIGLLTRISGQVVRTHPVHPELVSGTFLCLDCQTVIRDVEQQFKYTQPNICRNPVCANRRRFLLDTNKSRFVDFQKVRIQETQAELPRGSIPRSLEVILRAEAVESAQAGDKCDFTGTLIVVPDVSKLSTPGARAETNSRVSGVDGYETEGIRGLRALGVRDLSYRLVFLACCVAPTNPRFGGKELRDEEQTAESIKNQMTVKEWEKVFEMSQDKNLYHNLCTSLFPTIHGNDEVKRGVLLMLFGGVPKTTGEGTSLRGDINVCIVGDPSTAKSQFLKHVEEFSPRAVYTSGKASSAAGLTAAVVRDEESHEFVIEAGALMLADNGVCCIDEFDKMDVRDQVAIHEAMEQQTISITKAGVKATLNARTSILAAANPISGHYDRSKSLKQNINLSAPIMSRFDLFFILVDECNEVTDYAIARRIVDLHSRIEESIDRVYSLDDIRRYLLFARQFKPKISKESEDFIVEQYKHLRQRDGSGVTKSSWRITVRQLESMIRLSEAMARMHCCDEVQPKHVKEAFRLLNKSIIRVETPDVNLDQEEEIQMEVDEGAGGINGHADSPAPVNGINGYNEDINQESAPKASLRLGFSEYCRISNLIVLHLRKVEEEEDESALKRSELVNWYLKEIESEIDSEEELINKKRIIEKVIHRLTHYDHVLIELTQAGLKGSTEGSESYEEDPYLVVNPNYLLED
Sequence of proteins of HEK293T cells transiently overexpressing caspase-6 (Homo sapiens, UniProt Q13838) (Q13838 whole entry): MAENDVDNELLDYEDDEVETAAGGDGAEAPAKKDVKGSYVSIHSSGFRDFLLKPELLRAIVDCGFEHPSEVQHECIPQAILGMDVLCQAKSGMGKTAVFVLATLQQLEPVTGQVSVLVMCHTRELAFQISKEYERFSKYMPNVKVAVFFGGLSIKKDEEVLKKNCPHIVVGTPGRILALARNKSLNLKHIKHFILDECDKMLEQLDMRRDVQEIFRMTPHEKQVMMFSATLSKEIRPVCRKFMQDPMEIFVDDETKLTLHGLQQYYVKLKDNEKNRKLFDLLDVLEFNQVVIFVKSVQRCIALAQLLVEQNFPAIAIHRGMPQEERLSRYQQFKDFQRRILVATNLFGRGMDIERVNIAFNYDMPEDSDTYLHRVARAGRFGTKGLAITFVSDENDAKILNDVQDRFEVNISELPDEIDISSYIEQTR
Sequence of proteins of HEK293T cells transiently overexpressing caspase-6 (Homo sapiens, UniProt Q15365) (Q15365 whole entry): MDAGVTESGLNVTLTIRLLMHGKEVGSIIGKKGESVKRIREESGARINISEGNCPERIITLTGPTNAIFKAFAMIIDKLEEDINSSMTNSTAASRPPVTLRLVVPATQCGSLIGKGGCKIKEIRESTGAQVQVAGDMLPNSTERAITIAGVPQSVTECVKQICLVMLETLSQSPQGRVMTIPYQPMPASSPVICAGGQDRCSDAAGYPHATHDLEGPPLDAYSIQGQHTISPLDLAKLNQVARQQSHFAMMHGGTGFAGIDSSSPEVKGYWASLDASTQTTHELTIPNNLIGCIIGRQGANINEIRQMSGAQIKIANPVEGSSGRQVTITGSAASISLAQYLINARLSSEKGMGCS
Sequence of proteins of HEK293T cells transiently overexpressing caspase-6 (Homo sapiens, UniProt O43143) (O43143 whole entry): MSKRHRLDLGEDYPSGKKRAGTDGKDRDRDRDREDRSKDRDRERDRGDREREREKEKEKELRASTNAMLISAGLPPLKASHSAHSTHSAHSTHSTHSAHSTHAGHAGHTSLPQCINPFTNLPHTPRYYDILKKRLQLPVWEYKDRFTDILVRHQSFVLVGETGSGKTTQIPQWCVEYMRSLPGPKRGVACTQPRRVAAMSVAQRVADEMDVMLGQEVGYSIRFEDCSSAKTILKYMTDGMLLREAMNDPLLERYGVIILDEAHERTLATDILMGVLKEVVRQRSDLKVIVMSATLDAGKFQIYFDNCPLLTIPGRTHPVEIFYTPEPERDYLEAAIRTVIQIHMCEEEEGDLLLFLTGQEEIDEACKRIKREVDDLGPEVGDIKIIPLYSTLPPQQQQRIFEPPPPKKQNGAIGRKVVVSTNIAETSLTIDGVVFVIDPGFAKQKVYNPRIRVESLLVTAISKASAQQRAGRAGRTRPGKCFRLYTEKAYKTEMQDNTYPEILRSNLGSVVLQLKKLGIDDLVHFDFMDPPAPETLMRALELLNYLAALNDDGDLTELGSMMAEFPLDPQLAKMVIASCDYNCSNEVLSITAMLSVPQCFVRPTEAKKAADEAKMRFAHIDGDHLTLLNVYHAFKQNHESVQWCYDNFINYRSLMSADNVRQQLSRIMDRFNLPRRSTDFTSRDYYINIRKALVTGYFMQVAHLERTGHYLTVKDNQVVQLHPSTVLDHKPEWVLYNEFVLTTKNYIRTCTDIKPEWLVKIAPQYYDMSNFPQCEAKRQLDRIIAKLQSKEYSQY
Sequence of proteins of HEK293T cells transiently overexpressing caspase-6 (Homo sapiens, UniProt P60174) (P60174 whole entry): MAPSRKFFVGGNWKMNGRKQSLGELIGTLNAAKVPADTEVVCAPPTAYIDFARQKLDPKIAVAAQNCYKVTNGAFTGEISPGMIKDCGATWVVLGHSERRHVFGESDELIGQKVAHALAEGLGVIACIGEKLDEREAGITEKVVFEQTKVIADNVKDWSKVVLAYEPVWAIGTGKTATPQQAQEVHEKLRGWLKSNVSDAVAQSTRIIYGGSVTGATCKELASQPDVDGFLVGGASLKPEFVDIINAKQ

C#CCOc1ccc([C@@H]2C[C@@H](C(=O)Nc3ccc(OC(F)(F)F)cc3)CN(S(=O)(=O)C=C)C2)cc1 (relative stereo) [13-t]
enrich.exp.med ([1]; exp_ref Probe, analysis C6): 0.9475
enrich.exp.med.lin [1]: 1.929
enrich.exp.med.log2 [1]: 0.9475
enrich.exp.med [2]: -4.171
enrich.exp.med [3]: 1.571
enrich.exp.med [4]: 0.1365
enrich.exp.med ([5]; Probe, protein HIST1H4A P62805): -2.533
enrich.exp.med.lin ([5]; protein HIST1H4A (P62805)): 0.1728
enrich.exp.med.log2 ([5]; protein HIST1H4A (P62805)): -2.533
enrich.exp.med [6]: 0.5362
enrich.exp.med [7]: 0.6101
enrich.exp.med [8]: 0.006951
enrich.exp.med [9]: 0.1255
enrich.exp.med [10]: -0.4603
enrich.exp.med [11]: 1.504
enrich.exp.med ([12]; exp_ref Probe, analysis C6): 0.9895
enrich.exp.med.lin [12]: 1.986
enrich.exp.med.log2 [12]: 0.9895
enrich.exp.med ([13]; exp_ref Probe, analysis C6): 0.2961
enrich.exp.med.lin [13]: 1.228
enrich.exp.med.log2 [13]: 0.2961
enrich.exp.med [14]: 0.9779
enrich.exp.med [15]: 0.05791
enrich.exp.med.lin ([16]; Expt Probe): 10.7591
enrich.exp.med.log2 ([16]; Expt Probe): 3.427
enrich.exp.med ([16]; exp_ref Probe): 3.427
enrich.exp.med [17]: 1.187
enrich.exp.med [18]: -6.8322
enrich.exp.med [19]: 0.6252

From article PMC10176470, “Engaging a Non-catalytic Cysteine Residue Drives Potent and Selective Inhibition of Caspase-6” (Journal of the American Chemical Society, 2023)
